Laboratory results as given in article PMC7802075 (ACS Infectious Diseases, 2020).

Each compound was assayed against T1, LmjIPCS (inositol phosphorylceramide synthase from L. major) (Leishmania major, UniProt E9AFX2) (assay: biochemical). Details: not given.
T1 sequence (E9AFX2 1-338): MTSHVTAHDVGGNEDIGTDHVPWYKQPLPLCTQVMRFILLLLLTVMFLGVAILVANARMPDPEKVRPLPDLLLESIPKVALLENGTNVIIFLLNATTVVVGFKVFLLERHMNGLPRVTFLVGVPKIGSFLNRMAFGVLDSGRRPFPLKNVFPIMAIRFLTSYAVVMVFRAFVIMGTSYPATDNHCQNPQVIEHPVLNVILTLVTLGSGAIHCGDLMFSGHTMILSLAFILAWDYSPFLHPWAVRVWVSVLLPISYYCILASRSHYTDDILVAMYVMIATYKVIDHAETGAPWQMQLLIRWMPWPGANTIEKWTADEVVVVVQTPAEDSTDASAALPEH
Type: biochemical
Parameters: inhibition: dose or concentration left out as unconfirmed

| Compound | 20mM inhibition LmjIPCS [%] |
| --- | --- |
| CC1(C)S[C@@H]2[C@H](NC(=O)C(C(=O)O)c3ccccc3)C(=O)N2[C@H]1C(=O)O (some centres unmarked) [CARBENICILLIN] | 52 |
| Oc1ncnc2[nH]ncc12 [ALLOPURINOL] | 56 |
| CCC(Cc1c(I)cc(I)c(N)c1I)C(=O)O (centres unmarked) [IOPANIC ACID] | 7.62 |
| CN1CCC(OC(c2ccccc2)c2ccccc2)CC1 | 65 |
| C[C@H](N)[C@H](O)c1cccc(O)c1 [METARAMINOL] | 58 |
| C[C@]12CCC3c4ccc(OC(=O)CCC(=O)O)cc4CCC3C1CCC2=O (some centres unmarked) [ESTRONE HEMISUCCINATE] | 12 |
| CC(N)C(=O)OC(C)(C)Cc1ccc(Cl)cc1 (centres unmarked) [ALAPROCLATE] | 36 |
| COc1cc2c(cc1OC)-c1cc3ccc(OC)c(OC)c3c[n+]1CC2 [PALMATINE] | 8 |
| COc1ccc2c3c([nH]c2c1)C(C)=NCC3 [HARMALINE] | 54 |
| NC[C@H]1O[C@H](O[C@H]2[C@H](O)[C@@H](O[C@H]3O[C@H](CO)[C@@H](O)[C@H](N)[C@H]3O)[C@H](N)C[C@@H]2N)[C@H](O)[C@@H](O)[C@@H]1O [KANAMYCIN] | 26 |
| CCC(=O)O[C@]1(C(=O)CCl)[C@@H](C)C[C@H]2[C@@H]3CCC4=CC(=O)C=C[C@]4(C)[C@@]3(F)[C@@H](O)C[C@@]21C [CLOBETASOL PROPRIONATE] | 17 |
| CC(=O)OCC1=C(C(=O)O)N2C(=O)[C@@H](NC(=O)CSc3ccncc3)[C@H]2SC1 [CEPHAPIRIN] | 47 |
| CN[C@@H](C)[C@H](O)c1ccccc1 [EPHEDRINE (1R,2S)] | 8 |
| CC1=CC(=O)c2ccccc2C1=O [MENADIONE] | 43 |
| CN1CCN(C(c2ccccc2)c2ccccc2)CC1 [CYCLIZINE] | 58 |
| NCC(CC(=O)O)c1ccc(Cl)cc1 (centres unmarked) [BACLOFEN] | 50 |
| 1R,2S-PHENYLPROPYLAMINE | -2.19 |
| Nc1c(Br)cc(Br)cc1CN[C@H]1CC[C@H](O)CC1 [AMBROXOL] | 53 |

Same assay, conditions: NINDS set screen, compound at 20mM (so in the source)

| Compound | 20mM inhibition LmjIPCS [%] |
| --- | --- |
| N.N.O=C([O-])C1(C(=O)[O-])CCC1.[Pt+2] [CARBOPLATIN] | 16 |
| Cc1cc(C(C)(C)CC(C)(C)C)ccc1OCCOCC[N+](C)(C)Cc1ccccc1.[Cl-] [METHYLBENZETHONIUM CHLORIDE] | 12 |

Same assay, conditions: NINDS set screen, single concentration 20mM as printed

| Compound | 20mM inhibition LmjIPCS [%] |
| --- | --- |
| CNC[C@H](O)c1ccc(O)c(O)c1.O=C(O)C(O)C(O)C(=O)O [ADRENALINE BITARTRATE] | -5.34 |

Same assay, conditions: NINDS set screen, single concentration printed as 20mM

| Compound | 20mM inhibition LmjIPCS [%] |
| --- | --- |
| CC(=O)O[C@@H]1C[C@H]2C(C)(C)C(=O)C=C[C@]2(C)[C@H]2CC[C@@]3(C)[C@H](c4ccoc4)OC(=O)[C@H]4O[C@]43[C@@]21C [GEDUNIN] | 48 |
| COc1ccc(C(=O)c2ccccc2)c(O)c1 [OXYBENZONE] | 34 |
| NS(=O)(=O)c1cc2c(cc1Cl)N=C(CSCc1ccccc1)NS2(=O)=O [BENZTHIAZIDE] | 36 |

Same assay, conditions: NINDS set screen; read-out: inhibition LmjIPCS

| Compound | inhibition [%] |
| --- | --- |
| Oc1c(I)cc(I)c2cccnc12 [IODOQUINOL] | 23 |
| NC(=O)c1cnccn1 [PYRAZINAMIDE] | -17 |
| O=C(O)c1cc(O)c2c(c1)C(=O)c1cc(O)cc(O)c1C2=O [EMODIC ACID] | 14 |
| Cc1cc(-c2ccccc2)nnc1NCCN1CCOCC1 [MINAPRINE] | 25 |
| CCCCOC(=O)c1ccc(N)cc1 [BUTAMBEN] | 14 |
| CC(C)(O)CC[C@@H](O)[C@](C)(O)[C@H]1CC[C@@]2(O)C3=CC(=O)[C@@H]4C[C@@H](O)[C@@H](O)C[C@]4(C)[C@H]3CC[C@]12C [CRUSTECDYSONE] | -3.51 |
| CC[C@]12CCCN3CCc4c(n(c5ccccc45)[C@@](O)(C(=O)OC)C1)[C@@H]32 [VINCAMINE] | -17 |

Same assay, conditions: read-out: 20mM inhibition LmjIPCS

| Compound | inhibition at 20000 µM [%] |
| --- | --- |
| O=NN(CCCl)C(=O)NCCCl [CARMUSTINE] | 10 |
| NC(N)=Nc1nc(CSCCC(N)=NS(N)(=O)=O)cs1 [FAMOTIDINE] | 14 |
| O=C(O)CN(CC(=O)O)Cc1cc2c(cc1O)Oc1cc(O)c(CN(CC(=O)O)CC(=O)O)cc1C21OC(=O)c2ccccc21 [CALCEIN] | 0 |
| CCOC(=O)[C@H](CCc1ccccc1)N[C@H]1CCc2ccccc2N(CC(=O)O)C1=O [BENAZEPRIL] | -0.0339 |
| CN[C@@H]1[C@@H](O)[C@@H](O[C@@H]2[C@@H](O)[C@H](O[C@H]3O[C@H]([C@@H](C)O)[C@@H](O)[C@H](O)[C@H]3N)[C@@H](N)C[C@H]2N)OC[C@]1(C)O [GENETICIN] | 13 |
| CC(=O)O[C@H](CC(=O)[O-])C[N+](C)(C)C [ACETYLCARNITINE] | -17 |
| C[C@H](CS)C(=O)N1CCC[C@H]1C(=O)O [CAPTOPRIL] | 1.19 |
| c1ccc2c(CC3=NCCN3)cccc2c1 [NAPHAZOLINE] | 28 |
| Cc1ccc(S(=O)(=O)NC(=O)NN2CC3CCCC3C2)cc1 (centres unmarked) [GLICLAZIDE] | 14 |
| COc1cc(C2Oc3cc([C@H]4Oc5cc(O)cc(O)c5C(=O)[C@@H]4O)ccc3OC2CO)ccc1O (some centres unmarked) [SILIBININ] | 2.14 |
| CC1(C)S[C@@H]2[C@H](NC(=O)[C@H](NC(=O)N3CCNC3=O)c3ccccc3)C(=O)N2[C@H]1C(=O)O [AZLOCILLIN] | -4 |
| COc1ccc(Cc2nccc3cc(OC)c(OC)cc23)cc1OC [PAPAVERINE] | 21 |
| CC(=O)N[C@@H](CC(=O)N[C@@H](CCC(=O)O)C(=O)O)C(=O)O [SPAGLUMIC ACID] | 1.82 |
| CC[C@H]1[C@@H]2C[C@H]3[C@@H]4N(C)c5ccccc5[C@]45C[C@@H]([C@H]2[C@H]5O)N3[C@@H]1O [AJMALINE] | 23 |
| COC(=O)[C@H](c1ccccc1Cl)N1CCc2sccc2C1 [CLOPIDOGREL] | 32 |
| NNc1nncc2ccccc12 [HYDRALAZINE] | 15 |

| Compound | inhibition at 20000 µM [%] |
| --- | --- |
| CC(=O)Oc1ccc(Cl)c2cccnc12 [CHLOROACETOXYQUINOLINE] | 19 |
| CC1(C)NC(=O)N(c2ccc([N+](=O)[O-])c(C(F)(F)F)c2)C1=O [NILUTAMIDE] | 4 |
| CN(C)CCC=C1c2ccccc2C=Cc2ccccc21 [CYCLOBENZAPRINE] | -2.37 |
| CN/C(=N/CCSCc1nc[nH]c1C)NC#N [CIMETIDINE] | -0.386 |
| CC[N+](C)(C)c1cccc(O)c1 [EDROPHONIUM] | 12 |
| CCCN(CCC)C(=O)C(CCC(=O)O)NC(=O)c1ccccc1 (centres unmarked) [PROGLUMIDE] | 15 |
| O=C1c2ccccc2C(=O)c2ccccc21 [ANTHRAQUINONE] | 10 |
| CN(C)CCC(c1ccc(Br)cc1)c1ccccn1 (centres unmarked) [BROMPHENIRAMINE] | 14 |
| Oc1ccc(Cl)cc1 [PARACHLOROPHENOL] | 12 |
| O=C(Cc1cccs1)N[C@@H]1C(=O)N2C(C(=O)[O-])=C(C[n+]3ccccc3)CS[C@H]12 [CEPHALORIDINE] | 22 |
| CC(C)c1c(C(=O)Nc2ccccc2)c(-c2ccccc2)c(-c2ccc(F)cc2)n1CC[C@@H](O)C[C@@H](O)CC(=O)O [ATORVASTATIN] | 9.48 |
| CCOC(=O)N1CCC(=C2c3ccc(Cl)cc3CCc3cccnc32)CC1 [LORATADINE] | 21 |
| C/C=C(\C)C(=O)O[C@H]1C[C@@H](OC(C)=O)[C@@]2(C(=O)OC)CO[C@H]3[C@@H](O)[C@@](C)([C@]45O[C@@]4(C)[C@H]4C[C@@H]5O[C@@H]5OC=C[C@@]54O)[C@H]4[C@]1(CO[C@]4(O)C(=O)OC)[C@@H]32 [AZADIRACHTIN] | 3.53 |
| CO[C@@]1(NC(=O)Cc2cccs2)C(=O)N2C(C(=O)O)=C(COC(N)=O)CS[C@@H]21 [CEFOXITIN] | 3.72 |
| COc1cc([C@@H]2c3cc4c(c(O)c3C[C@H]3COC(=O)[C@@H]32)OCO4)cc(OC)c1OC [beta-PELTATIN] | -1.86 |
| C#C[C@]1(OC(C)=O)CC[C@H]2[C@@H]3CCC4=CC(=O)CC[C@@H]4[C@H]3CC[C@@]21C [NORETHINDRONE ACETATE] | 30 |

Same assay, conditions: read-out: inhibition LmjIPCS

| Compound | inhibition [%] |
| --- | --- |
| COc1c2ccoc2cc2oc(=O)ccc12 [BERGAPTEN] | 17 |
| N[C@@H]1CON=C1O [CYCLOSERINE] | -1.4 |
| Nc1nc(=O)c2nc(CNc3ccc(C(=O)N[C@@H](CCC(=O)O)C(=O)O)cc3)cnc2[nH]1 [FOLIC ACID] | 5.56 |
| Nc1ccc(S(=O)(=O)c2ccc(N)cc2)cc1 [DAPSONE] | 1.23 |
| O=C1CC[C@@]2(O)[C@H]3Cc4ccc(O)c5c4[C@@]2(CCN3CC2CC2)[C@H]1O5 [NALTREXONE] | 8 |
| Cc1cc2nc3c(=O)[nH]c(=O)nc-3n(C[C@H](O)[C@H](O)[C@H](O)CO)c2cc1C [RIBOFLAVIN] | 2.26 |
| CC(C(=O)O)c1ccc(-c2ccccc2)c(F)c1 (centres unmarked) [FLURBIPROFEN] | 4 |
| C[C@]12C=CC(=O)C=C1CC[C@@H]1[C@@H]2C(=O)C[C@@]2(C)[C@H]1CC[C@]2(O)C(=O)CO [PREDNISONE] | -4 |
| NCCCCC(=O)O [5-AMINOPENTANOIC ACID] | -2.68 |
| CC(C)(C)NC[C@H](O)COc1nsnc1N1CCOCC1 [TIMOLOL] | 22 |
| COc1ccc(C[C@H](N)C(=O)N[C@H]2[C@@H](O)[C@H](n3cnc4c(N(C)C)ncnc43)O[C@@H]2CO)cc1 [PUROMYCIN] | 20 |

Same assay, conditions: screening of NINDS set, sheet Screen 1; read-out: inhibition LmjIPCS

| Compound | inhibition [%] |
| --- | --- |
| NNC(=O)c1ccncc1 [ISONIAZID] | 9 |
| CCOC(=O)C(Cc1ccc(O)cc1)NC(C)=O (centres unmarked) [ACETYL TYROSINE ETHYL ESTER] | 3 |
| CCCCCCOc1ccccc1C(N)=O [EXALAMIDE] | 8 |
